Legend:
[1] = tested on: PBMCs from TG allergic donors; assay: IL-5 ELISPOT of TG extract-expanded PBMCs from TG allergic donors (peptide pools, single peptides, TG extract); format: cell-based, human
Experimental: Each donor was recruited following Institutional Review Board approval (Federal Wide Assurance number 00000032) and informed consent and assigned a study identification number. Donors were tested for allergen reactivity by skin prick tests to extracts from 32 common allergens. TG allergic donors were identified as having a skin reaction with a wheal of 5 mm in diameter to TG and a clinical history consistent with seasonal grass pollen allergy. Donors that had received specific immunotherapy were excluded. Non-allergic donors were identified as having negative skin prick tests to all allergens and no clinical history of allergy.
PBMCs were isolated by density gradient centrifugation from one unit of blood (˜450 ml) and cryo-preserved as described previously (12). For in vitro expansions, PBMCs were thawed and cultured in RPMI 1640 (Ω Scientific, Tarzana, Calif.) supplemented with 5% human AB serum (Cellgro, Herndon, Va.) at a density of 2×10^6 cells/ml in 24-well plates (BD Biosciences, San Jose, Calif.) and stimulated with TG pollen extract ([…]) (Greer, Lenoir, N.C.). Cells were kept at 37° C., 5% CO2 and additional IL-2 and IL-7 (10 U/ml, eBioscience, San Diego, Calif.) was added every 3 d after initial antigenic stimulation. On day 14, cells were harvested and screened for reactivity against TG-specific peptide pools (16-25 peptides/pool, averaging 20 peptides/pool). On day 17, peptides from positive pools were tested individually to identify the reactive epitopes.
The production of IL-5 from cultured PBMCs in response to antigen stimulation was measured by ELISPOT as described previously (12). Briefly, 1×10^5 cells/well were incubated with peptide, peptide pool or TG extract (10 μg/ml, 5 μg/ml and 50 μg/ml, respectively). After 24 h, cells were removed and plates were incubated with 2 μg/ml biotinylated anti-human IL-5 Ab (Mabtech) at 37° C. After 2 h, plates were washed and avidin-peroxidase-complex was added (Vector Laboratories, Burlingame, Calif.) for 1 h at RT. Peroxidase-conjugated spots were developed with 3-amino-9-ethylcarvazole solution (Sigma-Aldrich, St. Louis, Mo.). Criteria for peptide pool positivity were 100 SFCs/106 PBMCs, p 0.05, and a stimulation index (SI) 2. Criteria for individual peptides were the same except a minimum of 20 SFCs was counted as positive.

human IgG = assay: 2D gel immunoblot of TG extract with serum pool from 8 TG-allergic donors, IgG reactivity; format: binding
Experimental: (§1) 2D DIGE (Difference Gel Electrophoresis) analysis. The complete 2D DIGE analysis was performed by Applied Biomics (Hayward, Calif., US). Briefly, TG extract was run on two 2D gels (3-10 pH range, 12% SDS-acrylamide gel), one was Coomassie blue stained, the other was blotted onto a nitrocellulose membrane. The membrane was then incubated with 5% dried milk in PBS/0.05% Tween to block non-specific binding and subsequently probed with a serum pool from 8 TG-allergic individuals at a dilution of 1:250. IgE and IgG binding was detected using goat anti-human IgE and rabbit anti-human IgG (Sigma-Aldrich, St. Louis, Mo.) and visualized using Cy2-conjugated donkey anti-goat IgG and Cy5-conjugated donkey […] IgG antibodies (Biotium, Hayward, Calif.).
(§2) Mass spectral protein identification was performed by Applied Biomics (Hayward, Calif., US). Briefly, spots of interest were selected from the 2D blot and the corresponding spots were identified on the stained SDS gel and cut out, washed several times to remove staining dye and other inhibitory chemicals. The spots were then dried to absorb maximum digestion buffer. Dried 2D gel spots were rehydrated in digestion buffer containing trypsin. Proteins were digested in-gel at 37° C. and then extracted from the gel with TFA extraction buffer. Subsequently the peptides were desalted using C-18 Zip-tips (Millipore) and mixed with CHCA matrix (alpha-cyano-4-hydroxycinnamic acid) and spotted into wells of a MALDI plate. Mass spectra of the peptides in each sample were obtained using an Applied Biosystems Proteomics Analyzer. The spectra were compared to the amino acid sequences encoded by putative ORFs from the de novo assembled TG pollen transcripts. […] The amino acid sequences encoded by these ORFs were clustered using a custom script at a sequence similarity threshold of 90% to group together highly similar protein sequences. These sequences are encoded by different transcripts from the current assembly, which could arise from splice variants, allelic variation between cells of TG pollen, and from gene families with multiple members. Amino acid sequences that form one cluster are assigned one putative protein ID (Table 1).

human IgE = assay: 2D gel immunoblot of TG extract with serum pool from 8 TG-allergic donors, IgE reactivity; format: binding
Experimental: as §1, §2

[2] = tested on: PBMCs from TG allergic donors; assay: IFNg ELISPOT of TG extract-expanded PBMCs from TG allergic donors (single peptides); format: cell-based, human; settings: for Total response IFNg Events: number of positive response events
[3] = tested on: PBMCs from TG allergic donors; assay: as above; format: cell-based, human; settings: T cell recognition in TG allergic patients; for Total response IFNg Events: number of response events
[4] = tested on: PBMCs from TG allergic donors; assay: as above; format: cell-based, human; settings: T cell recognition in TG allergic patients; number of positive events
[5] = tested on: PBMCs from TG allergic donors; assay: IFNg ELISPOT of TG extract-expanded PBMCs (single peptides); format: cell-based, human; settings: number of positive response events to the 15-mer peptide
[6] = tested on: PBMCs from TG allergic donors; assay: IFNg ELISPOT of TG extract-expanded PBMCs from TG allergic donors (single peptides); format: cell-based, human; settings: for Total response IFNg Events: number of positive response events in TG allergic patients
[7] = IL-5, number of positive response events
[8] = T cell recognition in TG allergic patients, number of response events
[9] = G+ / G− part of the cell, reactivity of the parent antigen
[10] = IgG reactivity (G+/G−) of the source antigen of the peptide
[11] = E+ / E− part of the cell, reactivity of the parent antigen
[12] = IgE reactivity (E+/E−) of the source antigen of the peptide
[13] = T cell recognition in TG allergic patients
[14] = T cell recognition in TG allergic patients, number of positive events
[15] = IgG reactivity of the parent TG antigen
[16] = IgE reactivity of the parent TG antigen
[17] = number of positive response events in TG allergic patients
[18] = reactivity of the parent antigen (TG protein) from which the peptide is predicted, G+/G−
[19] = reactivity of the parent antigen (TG protein) from which the peptide is predicted, E+/E−

| Substance | Total response IL-5 Events [1, 7] | Total response IL-5 Events [1, 8] | Antibody reactvity IgE/IgG (IgG part) (human IgG; [9]) | Antibody reactivity IgE/IgG: IgG (human IgG; [10]) | Antibody reactvity IgE/IgG (IgE part) (human IgE; [11]) | Antibody reactivity IgE/IgG: IgE (human IgE; [12]) | Total response IFNg Events [2] | Total response IFNg SFC [2] [SFC] | Total response IFNg Events [3] | Total response IL-5 SFC ([1]; IL-5, total SFC) [SFC] | Total response IL-5 SFC [1, 13] [SFC] | also measured |
| --- | --- | --- | --- | --- | --- | --- | --- | --- | --- | --- | --- | --- |
| 26138 (KVINDRFGIVEGLMT; Phleum pratense) [Peptide 26138] | 0 | 0 | G− | G− | E+ | E+ | 1 | 37 | 1 | – | – | Total response IFNg SFC [3]: 37 SFC |
| 141 (LLGYLLWVVAIRRPR; Phleum pratense) [Peptide 141] | 1 | – | G+ | – | E+ | – | 0 | – | – | 110 | 110 | Total response IL-5 Events [1, 14]: 1; Antibody reactvity IgE/IgG (IgG part) (human IgG; [15]): G+; Antibody reactvity IgE/IgG (IgE part) (human IgE; [16]): E+; Total response IFNg Events [4]: 0 |
| 252 (SAPALRILRSFPSHS; Phleum pratense) [Peptide 252] | 1 | 1 | G− | G− | E+ | E+ | 1 | 143 | 1 | 97 | 97 | Total response IFNg SFC [3]: 143 SFC |
| 375 (EEAASTLPGLSSSTL; Phleum pratense) [Peptide 375] | – | 0 | – | G+ | – | E− | – | – | 0 | – | – | – |
| 350 (LKDGSTYSFRFSFIV; Phleum pratense) [Peptide 350] | 1 | – | G+ | – | E+ | – | 0 | – | – | 20 | 20 | Total response IL-5 Events [1, 14]: 1; Antibody reactvity IgE/IgG (IgG part) (human IgG; [15]): G+; Antibody reactvity IgE/IgG (IgE part) (human IgE; [16]): E+; Total response IFNg Events [4]: 0 |
| 6119 (KVSKVLNTYIFLLYL; Phleum pratense) [Peptide 6119] | – | – | – | – | – | – | – | – | – | – | – | Total response IL-5 SFC ([1]; 15-mer peptide): 27 SFC; Total response IL-5 SFC ([1]; TG allergic patients): 27 SFC; Total response IL-5 Events [1, 17]: 1; Total response IL-5 Events ([1]; number of positive response events to the 15-mer peptide): 1; Antibody reactivity IgE/IgG: IgG (human IgG; [18]): G−; Antibody reactvity IgE/IgG: IgG (human IgG; reactivity of the parent antigen, G+ = IgG reactive, G− = not): G−; Antibody reactivity IgE/IgG: IgE (human IgE; [19]): E−; Antibody reactvity IgE/IgG: IgE (human IgE; reactivity of the parent antigen, E− = not IgE reactive): E−; Total response IFNg Events [5]: 0; Total response IFNg Events [6]: 0 |
| 48269 (YAVGQKIKAYLEAES; Phleum pratense) [Peptide 48269] | 0 | – | G+ | – | E− | – | 1 | 297 | – | – | – | Total response IL-5 Events [1, 17]: 0; Antibody reactivity IgE/IgG: IgG (human IgG; [18]): G+; Antibody reactivity IgE/IgG: IgE (human IgE; [19]): E−; Total response IFNg SFC ([6]; TG allergic patients): 297 SFC; Total response IFNg Events [6]: 1 |

From patent US10428124B2, “Timothy grass allergens and methods and uses for immune response modulation” (LA JOLLA INSTITUTE FOR ALLERGY AND IMMUNOLOGY, priority 2012, dated 2019)
